In patent US6867185B2 (Bristol-Myers Squibb Company, priority 2001, dated 2005):
Counter-ions that a name gives are not always drawn.

Columns and labels:
[1] = target: T1, HCV NS3/4A protease complex, BMS strain (genotype 1a) (Hepatitis C virus genotype 1a, UniProt P27958, C1454S/C1711G); assay: Recombinant HCV NS3/4A protease complex FRET peptide assay (BMS strain); type: biochemical
T1 construct: recombinant HCV NS3/4A protease complex (amino'acids 1027 to 1711); inferred from the pET21b vector and Ni-NTA purification; made in house; host or cells: Escherichia coli BL21 (DE3), pET21b
Method in brief: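 Enzyme was NS3/4A complex (aa 1027-1711) from genotype 1a BMS strain, carrying C1454S and C1711G mutations plus a three-lysine tail, expressed in E. coli and Ni-NTA/size-exclusion purified to >90% purity.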

[2] = target: T2, human neutrophil elastase (HNE) (Homo sapiens, UniProt P08246); assay: Specificity assay, human neutrophil elastase; type: biochemical; conditions: 2 hr pre-incubation, read-out: HLE
T2 construct: purchased Sigma
T2 sequence (P08246 30-267): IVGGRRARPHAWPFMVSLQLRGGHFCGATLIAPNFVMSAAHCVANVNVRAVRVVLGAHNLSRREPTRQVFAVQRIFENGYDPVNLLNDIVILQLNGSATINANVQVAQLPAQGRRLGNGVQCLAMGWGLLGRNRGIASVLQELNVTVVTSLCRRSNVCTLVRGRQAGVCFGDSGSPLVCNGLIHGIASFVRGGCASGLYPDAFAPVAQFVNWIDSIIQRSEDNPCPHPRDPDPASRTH
Method: The specificities of compounds of the present invention were determined against a variety of serine proteases: human neutrophil elastase (HNE), porcine pancreatic elastase (PPE) and human pancreatic chymotrypsin and one cysteine protease: human liver cathepsin B. In all cases a 96-well plate format protocol using colorimetric p-nitroaniline (pNA) substrate specific for each enzyme was used as described previously (U.S. Pat. No. 6,323,180) with some modifications to the serine protease assays. All enzymes were purchased from Sigma while the substrates were from Bachem.
Each assay included a 2 hr enzyme-inhibitor pre-incubation at RT followed by addition of substrate and hydrolysis to ˜30% conversion as measured on a Spectramax Pro microplate reader. Compound concentrations varied from 100 to 0.4 μM depending on their potency. […]
The percentage of inhibition was calculated using the formula: [1−((UVinh−UVblank)/(UVctl−UVblank))]×100 […]

T1 sequence (P27958 1027-1711 C1454S/C1711G, one chain of several): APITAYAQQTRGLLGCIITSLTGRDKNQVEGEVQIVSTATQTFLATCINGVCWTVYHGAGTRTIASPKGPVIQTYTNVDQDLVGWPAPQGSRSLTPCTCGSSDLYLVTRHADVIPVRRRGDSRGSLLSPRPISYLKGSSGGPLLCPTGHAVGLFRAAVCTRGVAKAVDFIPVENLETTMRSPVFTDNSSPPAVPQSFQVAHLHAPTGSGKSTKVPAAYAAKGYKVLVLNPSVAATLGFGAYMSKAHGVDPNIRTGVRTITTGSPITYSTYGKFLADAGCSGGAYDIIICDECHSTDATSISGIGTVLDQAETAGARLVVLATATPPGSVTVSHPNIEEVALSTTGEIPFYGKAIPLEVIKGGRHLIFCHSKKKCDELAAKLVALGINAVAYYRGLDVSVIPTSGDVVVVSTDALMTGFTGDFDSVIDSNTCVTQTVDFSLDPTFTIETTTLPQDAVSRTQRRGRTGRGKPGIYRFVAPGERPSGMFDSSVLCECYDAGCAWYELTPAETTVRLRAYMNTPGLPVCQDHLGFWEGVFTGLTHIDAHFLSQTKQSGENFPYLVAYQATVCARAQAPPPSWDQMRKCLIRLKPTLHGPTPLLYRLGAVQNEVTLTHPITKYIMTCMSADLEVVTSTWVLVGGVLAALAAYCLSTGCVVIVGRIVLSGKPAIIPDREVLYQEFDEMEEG

`COc1ccc2c(O[C@@H]3C[C@H]4C(=O)N[C@]5(C(=O)NS(=O)(=O)C6CC6)CC5/C=C/CCCC[C@H](N)C(=O)N4C3)cc(-c3ccccc3)nc2c1` (stereo partly drawn) [Compound 6, (1S,4R,6S,13S,17R)-7-trans-Cyclopropanesulfonic acid [13-amino-17-(7-methoxy-2-phenylquinolin-4-yloxy)-2,14-dioxo-3,15-diazatricyclo[13.3.0.0^4,6]octadec-7-ene-4-carbonyl]amide dihydrochloride] was tested, and the IC50 ([1]; IC50, HCV NS3/4A protease FRET assay in vitro, IC50 ranges) was under 0.05 µM, the IC50 ([1]; IC50, against the BMS HCV NS3/4A complex) was 0.021 µM and the IC50 [2] was 30 µM.
